{
  "source": "patent EP2085082A1",
  "about": "“Treatment of cognitive decline” (Nutromnia S.R.L., priority 2008, dated 2009)",
  "type_in_all_cases": "in vivo",
  "key": {"Wistar rats [1]": {"test_system": "Wistar rats", "test": "Morris water maze, repeated acquisition task, age-related cognitive decline", "conditions": "old Wistar rats, 5% dodecanedioic acid pellets for 3 months", "protocol": "(§1) In order to evaluate the impact of a diet enriched with dicarboxylic acids on age-related cognitive decline, 20 Wistar rats of both sexes (half male and half female), 4 months old and 23 months old were used.\n(§2) Rats of the same sex were housed (2-3 per cage) in a colony room with a 12:12 light- dark cycle and ad libitum access to food and water. All behavioural testing occurred during the light phase of the light- dark cycle. Body weight was recorded twice a week.\n(§3) The rats were divided in two groups of 10. The rats of a group (treated group) were fed with pellets enriched with 5% dodecanedioic acid, the rats of the other group being the control group. The dietary supplementation was carried out for 3 months and in the last week of treatment both groups underwent some tasks in the Morris water maze in order to test their cognitive abilities.\n(§4) A large metal pool (180 cm in diameter) filled with opaque water and kept at a constant temperature 24 ± 1°C and a 10 cm platform were used in place discrimination and visual discrimination tasks. A straight plastic alley (10 × 70 cm) was placed in the large pool and used during the straight swim test to estimate swimming ability. A video-camera was used to record the different phases of the experiments.\n(§5) The training started on the day after the place discrimination task and consisted of 1 day of training with two sessions of 9 trials each. During the first session, the set of extra maze cues, as well as the location of platform, was different from that on the previous place discrimination task. During the second session, the platform was moved to the new position, with the set of external cues remaining the same. Each session consisted of eight platform trials and one probe trial. The measures of platform and probe trials were the same as in the place discrimination task.\n(§6) Data are reported as mean ± SD. Comparison between groups was made by repeated-measures ANOVA. Body weight was used as a covariance to adjust the significance of between-group differences in speed of swimming. P<0.05 was considered as significant."}, "Wistar rats [2]": {"test_system": "Wistar rats", "test": "Morris water maze, place discrimination task, age-related cognitive decline", "conditions": "for Swimming time (choice accuracy, time to find the platform): pellets enriched with 5% dodecanedioic acid for 3 months", "protocol": "as §1, §2, §3, §4\n(§7) Each rat received 1 day of training with three sessions of five platform trials and one probe trial each and a random order of start positions. During the platform trials, the platform was submerged but accessible to the rat, whereas during the probe trials, the platform was collapsed at the bottom of the tank for variable intervals (from 10 to 40 sec) to test the subject's preference for the platform location. The collapsed platform was then returned to its raised position at the end of the probe trial to maintain the same response-reinforcement contingency as in the platform trials. The percentage of time spent in the correct quadrant, the choice accuracy [i.e. the time in seconds to find the platform], and the travelled distance or distance swum to find and climb on the platform [in centimeters] were measured. A a shorter time to find the platform indicate better performance. Higher scores for a percentage of time spent in the correct quadrant reflected better performance. Location of the platform and a set of spatial cues around the tank were changed between the testing periods.\nas §6"}, "Goto-Kakizaki rats [3]": {"test_system": "Goto-Kakizaki rats", "test": "Morris water maze, place discrimination task, diabetes-related cognitive decline", "conditions": "for Travelled distance / time of permanence in the correct quadrant / time to find the platform: Goto-Kakizaki rats", "protocol": "(§8) In order to evaluate the impact of a diet enriched with dicarboxylic acids on diabetes-related cognitive decline, 10 Wistar rats and 20 Goto-Kakizaki rats of both sexes (half male and half female), aged 4 months were used.\n(§9) Rats of the same sex were housed (2-3 per cage) in a colony room with a 12:12 light- dark cycle and ad libitum access to food and water. All behavioral testing occurred during the light phase of the light- dark cycle. Body weight was recorded twice a week.\n(§10) Ten Goto-Kakizaki rats (treated group) were selected at random from the initial group of 20 animals and were fed with pellets enriched with 5% dodecanedioic acid. The remaining ten Goto-Kakizaki rats formed the control group and received standard Purina chow. A group of ten Wistar rats was also fed with standard Purina chow, as second control group.\n(§11) The dietary supplementation was carried out for 1 month and in the last week of treatment the different groups underwent some tasks in the Morris water maze in order to test their cognitive abilities.\nas §4, §7, §6"}, "Goto-Kakizaki rats [4]": {"test_system": "Goto-Kakizaki rats", "test": "Morris water maze, place discrimination task, diabetes-related cognitive decline", "conditions": "average value (mean ± SD, 10 rats), 5% dodecanedioic acid pellets for 1 month, listed as dodecanoic acid"}, "Goto-Kakizaki rats [5]": {"test_system": "Goto-Kakizaki rats", "test": "Morris water maze, repeated acquisition task, diabetes-related cognitive decline", "conditions": "5% dodecanedioic acid pellets for 1 month", "protocol": "as §8, §9, §10, §11, §4, §5\nData are reported as mean ± SD. Comparison between groups was made by repeated-measures ANOVA. […]"}, "[6]": {"conditions": "average value (mean ± SD, 10 rats)"}, "[7]": {"conditions": "administered orally, rats, overall conclusion"}, "[8]": {"conditions": "individual data per rat, old Wistar rats, 5% dodecanedioic acid pellets for 3 months"}, "[9]": {"conditions": "average value (mean ± SD, 10 rats), 5% dodecanedioic acid pellets for 1 month"}, "[10]": {"conditions": "individual data per rat, 5% dodecanedioic acid pellets for 1 month"}},
  "note": "Several values for one entry are separate records, joined by “and”; a condition that tells them apart may be missing. Identical values can stand only once.",
  "data": [
    {"smiles": "O=C(O)CCCCCCCCCCC(=O)O", "note": "[C12, dodecanedioic acid]", "values": [
      {"measurement": "Travelled distance in repeated trials", "setting": "Wistar rats [1]; [6]", "result": "327,00 cm"},
      {"measurement": "Travelled distance in repeated trials", "setting": "Wistar rats [1]; average value (mean ± SD, 10 rats), listed as dodecanedioic acid", "result": "327.0±80.4", "unit": "cm"},
      {"measurement": "Travelled distance in repeated trials", "setting": "Wistar rats [1]; individual data per rat", "result": "400 cm and 300 cm (3×) and 200 cm and 350 cm and 410 cm and 260 cm and 470 cm and 280 cm"},
      {"measurement": "age-related decline in various cognitive functions", "setting": "Wistar rats [2]; [7]", "result": "ameliorates"},
      {"measurement": "time in the correct quadrant", "setting": "Wistar rats [2]; average value (10 rats), old Wistar rats, 5% dodecanedioic acid pellets for 3 months", "result": "41,70%"},
      {"measurement": "Travelled distance", "setting": "Wistar rats [2]; average value (mean ± SD, 10 rats), old Wistar rats, 5% dodecanedioic acid pellets for 3 months", "result": "409,50 cm"},
      {"measurement": "Travelled distance", "setting": "Wistar rats [2]; average value (mean ± SD, 10 rats), old Wistar rats, 5% dodecanedioic acid pellets for 3 months, listed as dodecanoic acid", "result": "409.5± 98.6", "unit": "cm"},
      {"measurement": "Swimming time (choice accuracy, time to find the platform)", "setting": "Wistar rats [2]; average value (mean ± SD, 10 rats), old Wistar rats", "result": "19,59 sec"},
      {"measurement": "Swimming time (choice accuracy, time to find the platform)", "setting": "Wistar rats [2]; average value (mean ± SD, 10 rats), old Wistar rats, listed as dodecanedioic acid", "result": "19.6 ± 1.6", "unit": "s"},
      {"measurement": "Swimming time", "setting": "Wistar rats [2]; individual data per rat, old Wistar rats fed pellets enriched with 5% dodecanedioic acid for 3 months", "result": "21,8 sec and 18 sec (3×) and 22 sec and 19 sec and 21 sec and 20 sec and 18,5 sec and 19,6 sec"},
      {"measurement": "Travelled distance", "setting": "Wistar rats [2]; [8]", "result": "370 cm and 400 cm and 300 cm (2×) and 580 cm and 450 cm and 520 cm and 350 cm and 325 cm and 500 cm"},
      {"measurement": "time in the correct quadrant", "setting": "Wistar rats [2]; [8]", "result": "35% (2×) and 50% and 45% and 40% and 42% and 44% and 48% and 37% and 41%"},
      {"measurement": "time of permanence in the correct quadrant", "setting": "Wistar rats [2]; mean ± SD as given in text, old Wistar rats, 5% dodecanedioic acid pellets for 3 months", "result": "41.7±5.2", "unit": "% sec"},
      {"measurement": "diabetes-related decline in various cognitive functions", "setting": "Goto-Kakizaki rats [3]; [7]", "result": "ameliorates"},
      {"measurement": "Travelled distance", "setting": "Goto-Kakizaki rats [3]; [9]", "result": "423,60 cm"},
      {"measurement": "time of permanence in the correct quadrant", "setting": "Goto-Kakizaki rats [3]; [9]", "result": "44,00 sec"},
      {"measurement": "time to find the platform", "setting": "Goto-Kakizaki rats [3]; [9]", "result": "23,24 sec"},
      {"measurement": "time to find the platform", "setting": "Goto-Kakizaki rats [3]; average value (mean ± SD, 10 rats), 5% dodecanedioic acid pellets for 1 month, listed as dodecanedioic acid", "result": "23.24 ± 2.81", "unit": "s"},
      {"measurement": "Travelled distance", "setting": "Goto-Kakizaki rats [3]; [10]", "result": "306 cm and 418 cm and 511 cm (2×) and 368 cm and 354 cm and 477 cm and 541 cm and 326 cm and 424 cm"},
      {"measurement": "time of permanence in the correct quadrant", "setting": "Goto-Kakizaki rats [3]; [10]", "result": "41 sec (2×) and 49 sec and 50 sec and 46 sec and 39 sec and 47 sec and 45 sec and 44 sec and 38 sec"},
      {"measurement": "time to find the platform", "setting": "Goto-Kakizaki rats [3]; individual data per rat, pellets enriched with 5% dodecanedioic acid for 1 month", "result": "18,4 sec and 22,6 sec and 23,4 sec and 25,9 sec and 27 sec and 24 sec and 22,1 sec and 23,5 sec and 26,2 sec and 19,3 sec"},
      {"measurement": "Travelled distance", "setting": "Goto-Kakizaki rats [4]", "result": "423.6±83.82", "unit": "cm"},
      {"measurement": "REPEATED ACQUISITION TASK TRAVELLED DISTANCE", "setting": "Goto-Kakizaki rats [5]; [6]", "result": "374,10 cm"},
      {"measurement": "REPEATED ACQUISITION TASK TRAVELLED DISTANCE", "setting": "Goto-Kakizaki rats [5]; average value (mean ± SD, 10 rats), listed as dodecanoic acid", "result": "374.1±78.23", "unit": "cm"},
      {"measurement": "REPEATED ACQUISITION TASK TRAVELLED DISTANCE", "setting": "Goto-Kakizaki rats [5]; individual data per rat", "result": "403 cm and 300 cm (3×) and 370 cm and 359 cm and 291 cm and 444 cm and 498 cm and 476 cm"}
    ]}
  ]
}
